Data published in patent US20140057978A1, “NOVEL USE OF BENZOFURANYLSULFONATES” (priority 2011, published 2014).

What was measured:
[1] = system: severe contusive SCI in Lewis rats; assay: BBB open field locomotor rating scale after severe spinal cord contusion injury; assay type: in vivo; settings: rat, oral
Experimental: Oral treatment with a benzofuranylsulfonate after severe spinal cord contusion injury in the rat.
Thirteen week-old female Lewis rats (Charles River, Sulzfeld Germany) were housed under a 12:12 h dark/light regime and allowed free access to water and food. After one week of habituation the animals underwent general anesthesia with a mixture of isoflurane and air (induction: 5% isoflurane, maintenance: 2.2% isofluorane). A Th10 laminectomy was performed without rupturing the dura and a severe contusive SCI (25 gcm NYU/MASCIS II impactor) (Gruner, 1992) was induced. After suturing muscle and skin, a subcutaneous (s.c.) injection of 5 ml of Ringers Lactate was given. Bladders were emptied manually 2 times a day until spontaneous voiding returned (usually within 1 week). The lesion severity was verified by the impact velocity and contusion depth of the impactor rod. Animals with an impact velocity error >5% were excluded from further analysis. After injury, individual rats were randomly assigned into a treatment group. The following groups were used: […]
The BBB open field locomotor rating scale: The BBB locomotor rating scale was used to assess general locomotor performance (Basso et al., 1995). The score was assessed before injury and at 1, 3, 5, 7, 14, 21, 35, 42, 49, 56 and 63 days post operation (dpo) by 2 blinded observers.

[2] = system: embryonic DRG (Dorsal Root Ganglion) explants; assay: Axonal growth in embryonic DRG explants; assay type: cell-based, rat; settings: 22 hours in vitro
Experimental: (§1) In vitro experiments with a benzofuranylsulfonate to improve axonal growth and Schwann cell expansion in embryonic DRG (Dorsal Root Ganglion) explants of rats.
(§2) Outgrowth studies with Methanesulfonic acid 2-(2,4-dichloro-benzoyl)-3-ureido-benzofuran-6-yl ester or the vehicle were performed on embryonic neural tissue. DRGs of thoracic, lumbar, and sacral levels were prepared from Wistar rat embryos E18-20 and processed in ice cold 0.6% glucose in PBS. Harvested DRGs were freed from attaching nerve fibres, dissected, and transferred onto PDL- and laminin-coated glass coverlips. To avoid cluster formation, a maximum of two DRG explants were transferred onto a single glass coverslip. Following an initial attachment phase, the pre-incubation medium was replaced by fully supplemented growth medium spiked with the test item (Methanesulfonic acid 2-(2,4-dichloro-benzoyl)-3-ureido-benzofuran-6-yl ester groups 2 and 3) or vehicle (DMF, group 1) and incubated at 37° C./10% CO2 for additional 22 hours in vitro. Following 22 hours in vitro, the DRG explants were fluorescently labelled and axonal growth and Schwann cell expansion were quantitatively assessed.
(§3) Group 1: Fully supplemented growth medium with 0.1% vehicle. Group 2: Fully supplemented growth medium with 0.1% vehicle and Methanesulfonic acid 2-(2,4-dichloro-benzoyl)-3-ureido-benzofuran-6-yl ester at a final concentration of 0.1 μM. Group 3: Fully supplemented growth medium with 0.1% vehicle and Methanesulfonic acid 2-(2,4-dichloro-benzoyl)-3-ureido-benzofuran-6-yl ester at a final concentration of 1 μM.
Morphometric data are presented as the mean values and standard deviations of the axonal growth area in μm^2.

[3] = system: Schwann cells of embryonic DRG explants; assay: Schwann cell expansion in embryonic DRG explants; assay type: cell-based, rat; settings: for Schwann cell expansion (numbers of Schwann cells outside the DRG explant core): 22 hours in vitro, versus vehicle
Experimental: as §1, §2, §3
Data are presented as the mean values and standard deviations of the numbers of Schwann cells outside the DRG explant core.

## CS(=O)(=O)Oc1ccc2c(NC(N)=O)c(C(=O)c3ccc(Cl)cc3Cl)oc2c1 [methanesulfonic acid 2-(2,4-dichloro-benzoyl)-3-ureido-benzofuran-6-yl ester]
[1]; 10 mg in vehicle, vehicle animals 7.8
  BBB score at steady state: 8.8
[1]; 10 mg, DPO 56, Students T-Test p=0.01
  BBB performance compared to vehicle controls at the end of the experiment: significantly better
[2]; 0.1 μM
  growth area of outgrowing axons, as compared to vehicle-treated cultures: significant increase
[2]; 1 μM
  growth area of outgrowing axons, as compared to vehicle-treated cultures: significant increase
[2]; 1 μM, versus vehicle
  elevation of axonal growth areas (fold): nearly five fold
[3]; 0.1 μM
  Schwann cell expansion (numbers of Schwann cells outside the DRG explant core): significant increase
[3]; 1 μM
  Schwann cell expansion (numbers of Schwann cells outside the DRG explant core): significant increase
[3]; treated cultures versus vehicle-treated cultures, highest at 0.1 μM
  increase of Schwann cell numbers (fold): nearly fivefold
